In PubChem BioAssay AID248 (DTP/NCI, 2004):
Where “and” joins values, the source holds several entries; their conditions need not be identical. Equal values may be shown once. Inconclusive results and toxic doses are left out.

System: L1210 leukemia ip in BDF1 mice, survival T/C
Assay: NCI In Vivo Anticancer Drug Screen. Data for tumor model L1210 Leukemia (intraperitoneal) in B6D2F1 (BDF1) mice
Conditions: endpoint: mean survival time, higher = longer survival
Procedure, shortened: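 Read-out is survival time, reported as the treated-group measurement over the vehicle-control measurement.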

[1] = dose: 50.0 mg/kg/injection, schedule: Q01DX009 (ip), vehicle: Klucel (hydroxypropylcellulose) (HPC)
[2] = dose: 100.0 mg/kg/injection, schedule: Q01DX009 (ip), vehicle: Klucel (hydroxypropylcellulose) (HPC)
[3] = dose: 100.0 mg/kg/injection, schedule: Q04DX003 (ip), vehicle: Klucel (hydroxypropylcellulose) (HPC)
[4] = dose: 200.0 mg/kg/injection, schedule: Q01DX009 (ip), vehicle: Klucel (hydroxypropylcellulose) (HPC)
[5] = dose: 200.0 mg/kg/injection, schedule: Q04DX003 (ip), vehicle: Klucel (hydroxypropylcellulose) (HPC)
[6] = dose: 100.0 mg/kg/injection, schedule: Q04DX002 (ip), vehicle: Klucel (hydroxypropylcellulose) (HPC)
[7] = dose: 200.0 mg/kg/injection, schedule: Q04DX002 (ip), vehicle: Klucel (hydroxypropylcellulose) (HPC)

With `CSc1cc(C(=O)Nc2ccc(C3=NCCN3)cc2)ccc1C(=O)Nc1ccc(C2=NCCN2)cc1` as the molecule, how does the T/C (dose: 0.5 mg/kg/injection, schedule: Q01DX Z (ip), vehicle: carboxymethylcellulose (CMC)) read?
The T/C was 109 % of control.

What about the T/C (dose: 0.62 mg/kg/injection, schedule: Q01DX015 (ip), vehicle: methylcellulose (MC)) of the same molecule?
Its T/C is 112 % of control.

And the T/C (dose: 1.25 mg/kg/injection, schedule: Q01DX015 (ip), vehicle: methylcellulose (MC))?
The T/C was 108 % of control.

What about the T/C (dose: 3.75 mg/kg/injection, schedule: Q01DX Z (ip), vehicle: carboxymethylcellulose (CMC)) of the same molecule?
The T/C was 203 % of control.

What about the T/C (dose: 7.5 mg/kg/injection, schedule: Q01DX Z (ip), vehicle: carboxymethylcellulose (CMC)) of the same molecule?
Its T/C is 231 % of control.

What about the T/C (dose: 10.0 mg/kg/injection, schedule: Q01DX015 (ip), vehicle: methylcellulose (MC)) of the same molecule?
The T/C was 231 % of control.

What about the T/C (dose: 10.0 mg/kg/injection, schedule: Q01DX Z (ip), vehicle: carboxymethylcellulose (CMC)) of the same molecule?
Its T/C is 236 % of control.

What about the T/C (dose: 15.0 mg/kg/injection, schedule: Q01DX Z (ip), vehicle: carboxymethylcellulose (CMC)) of the same molecule?
The T/C was 280 % of control.

What about the T/C (dose: 20.0 mg/kg/injection, schedule: Q01DX015 (ip), vehicle: methylcellulose (MC)) of the same molecule?
Its T/C is 286 % of control.

And the T/C (dose: 20.0 mg/kg/injection, schedule: Q01DX Z (ip), vehicle: carboxymethylcellulose (CMC))?
The T/C was 287 % of control.

And the T/C (dose: 30.0 mg/kg/injection, schedule: Q01DX Z (ip), vehicle: carboxymethylcellulose (CMC))?
Its T/C is 178 % of control.

What about the T/C (dose: 40.0 mg/kg/injection, schedule: Q01DX015 (ip), vehicle: methylcellulose (MC)) of the same molecule?
Its T/C is 221 % of control.

And the T/C (dose: 40.0 mg/kg/injection, schedule: Q01DX Z (ip), vehicle: carboxymethylcellulose (CMC))?
The T/C was 168 % of control.

What about the T/C (dose: 50.0 mg/kg/injection, schedule: Q01DX Z (oral), vehicle: carboxymethylcellulose (CMC)) of the same molecule?
The T/C was 102 % of control.

And the T/C (dose: 100.0 mg/kg/injection, schedule: Q01DX Z (oral), vehicle: carboxymethylcellulose (CMC))?
Its T/C is 100 % of control.

What about the T/C (dose: 150.0 mg/kg/injection, schedule: Q01DX001 (ip), vehicle: methylcellulose (MC)) of the same molecule?
The T/C was 167 % of control.

And the T/C (dose: 200.0 mg/kg/injection, schedule: Q01DX Z (oral), vehicle: carboxymethylcellulose (CMC))?
Its T/C is 104 % of control.

What about the T/C (dose: 400.0 mg/kg/injection, schedule: Q01DX Z (oral), vehicle: carboxymethylcellulose (CMC)) of the same molecule?
The T/C was 95 % of control.

`c1ccc(C2C(c3ccccc3)N2CCCN2CCOCC2)cc1` (stereo not drawn) was tested. Which T/C [1] did it give?
Its T/C is 106 % of control.

And the T/C [2]?
The T/C was 103 % of control.

What about the T/C [3] of the same molecule?
Its T/C is 88 % of control.

And the T/C [4]?
Its T/C is 107 % of control.

And the T/C [5]?
The T/C was 93 % of control.

How did the T/C (dose: 87.5 mg/kg/injection, schedule: Q01DX009 (ip), vehicle: Klucel (hydroxypropylcellulose) (HPC)) turn out when `O=C(Nc1cnc2ccccc2c1)Nc1cnc2ccccc2c1` was run?
Its T/C is 87 % of control.

What about the T/C (dose: 175.0 mg/kg/injection, schedule: Q01DX009 (ip), vehicle: Klucel (hydroxypropylcellulose) (HPC)) of the same molecule?
Its T/C is 97 % of control.

And the T/C (dose: 350.0 mg/kg/injection, schedule: Q01DX009 (ip), vehicle: Klucel (hydroxypropylcellulose) (HPC))?
Its T/C is 89 % of control.

How did the T/C [3] turn out when `C(CCCCc1nn[nH]n1)CCCc1nn[nH]n1` was run?
The T/C was 94 % of control.

What about the T/C [5] of the same molecule?
The T/C was 103 % of control.

What about the T/C (dose: 400.0 mg/kg/injection, schedule: Q04DX003 (ip), vehicle: Klucel (hydroxypropylcellulose) (HPC)) of the same molecule?
Its T/C is 91 % of control.

For `O=C(COc1ccc(F)cc1F)Oc1ccc([N+](=O)[O-])cc1`, which T/C [6] is on record?
Its T/C is 101 % of control.

And the T/C [7]?
Its T/C is 104 % of control.

And the T/C (dose: 400.0 mg/kg/injection, schedule: Q04DX002 (ip), vehicle: Klucel (hydroxypropylcellulose) (HPC))?
The T/C was 97 % of control.

`CCOC(=O)COc1ccccc1Cl` was tested. Which T/C (dose: 1.56 mg/kg/injection, schedule: Q04DX002 (ip), vehicle: Klucel (hydroxypropylcellulose) (HPC)) did it give?
Its T/C is 115 % of control.

And the T/C (dose: 3.13 mg/kg/injection, schedule: Q04DX002 (ip), vehicle: Klucel (hydroxypropylcellulose) (HPC))?
Its T/C is 105 % of control.

And the T/C (dose: 6.25 mg/kg/injection, schedule: Q04DX002 (ip), vehicle: Klucel (hydroxypropylcellulose) (HPC))?
Its T/C is 108 % of control.

What about the T/C (dose: 12.5 mg/kg/injection, schedule: Q04DX002 (ip), vehicle: Klucel (hydroxypropylcellulose) (HPC)) of the same molecule?
The T/C was 106 % of control.

And the T/C (dose: 25.0 mg/kg/injection, schedule: Q04DX002 (ip), vehicle: Klucel (hydroxypropylcellulose) (HPC))?
The T/C was 95 % of control.

What about the T/C (dose: 50.0 mg/kg/injection, schedule: Q04DX002 (ip), vehicle: Klucel (hydroxypropylcellulose) (HPC)) of the same molecule?
Its T/C is 97 % of control.

With `O=C(Oc1ccc2ccc(=O)oc2c1)N(CCCl)CCCl` as the molecule, how does the T/C [1] read?
Its T/C is 97 % of control.

What about the T/C [2] of the same molecule?
The T/C was 90 % of control.

What about the T/C [4] of the same molecule?
Its T/C is 101 % of control.

Which results are given for `CC(=O)Nc1ccc(S(=O)(=O)Nc2ccccc2F)cc1`?
T/C (dose: 100.0 mg/kg/injection, schedule: Q01DX009 (ip), vehicle: saline): 102 % of control; T/C (dose: 200.0 mg/kg/injection, schedule: Q01DX009 (ip), vehicle: saline): 102 % of control; T/C (dose: 400.0 mg/kg/injection, schedule: Q01DX009 (ip), vehicle: saline): 105 % of control

For `ClC1=C(Cl)C(Cl)(Cl)SS1`, which T/C (dose: 9.5 mg/kg/injection, schedule: Q01DX001 (ip), vehicle: other) is on record?
Its T/C is 100 % of control.

What about the T/C (dose: 10.0 mg/kg/injection, schedule: Q04DX003 (ip), vehicle: other) of the same molecule?
The T/C was 100 % of control.

And the T/C (dose: 19.0 mg/kg/injection, schedule: Q01DX001 (ip), vehicle: other)?
Its T/C is 103 % of control.

And the T/C (dose: 20.0 mg/kg/injection, schedule: Q04DX003 (ip), vehicle: other)?
Its T/C is 92 % of control.

What about the T/C (dose: 38.0 mg/kg/injection, schedule: Q01DX001 (ip), vehicle: other) of the same molecule?
The T/C was 91 % of control.

And the T/C (dose: 40.0 mg/kg/injection, schedule: Q04DX003 (ip), vehicle: other)?
Its T/C is 89 % of control.

And the T/C (dose: 75.0 mg/kg/injection, schedule: Q01DX001 (ip), vehicle: other)?
Its T/C is 93 % of control.

`COc1ccc2c(c1OC)C13CCCCC1C(C2)[N+](C)(C)CC3` (stereo not drawn) was tested. Which T/C (dose: 12.5 mg/kg/injection, schedule: Q04DX003 (ip), vehicle: Klucel (hydroxypropylcellulose) (HPC)) did it give?
The T/C was 100 % of control and 91 % of control.

What about the T/C (dose: 25.0 mg/kg/injection, schedule: Q01DX009 (ip), vehicle: Klucel (hydroxypropylcellulose) (HPC)) of the same molecule?
Its T/C is 100 % of control.

What about the T/C (dose: 25.0 mg/kg/injection, schedule: Q04DX003 (ip), vehicle: Klucel (hydroxypropylcellulose) (HPC)) of the same molecule?
The T/C was 94 % of control and 106 % of control.

What about the T/C [1] of the same molecule?
The T/C was 89 % of control.

What about the T/C (dose: 50.0 mg/kg/injection, schedule: Q04DX003 (ip), vehicle: Klucel (hydroxypropylcellulose) (HPC)) of the same molecule?
Its T/C is 96 % of control and 88 % of control.

What about the T/C [3] of the same molecule?
The T/C was 98 % of control.

Which T/C (dose: 2.5 mg/kg/injection, schedule: Q01DX009 (ip), vehicle: saline) does the source give for `CNC(C#N)Cc1ccccc1` (stereo not drawn) here?
The T/C was 96 % of control.

What about the T/C (dose: 5.0 mg/kg/injection, schedule: Q01DX009 (ip), vehicle: saline) of the same molecule?
The T/C was 98 % of control.

What about the T/C (dose: 10.0 mg/kg/injection, schedule: Q01DX009 (ip), vehicle: saline) of the same molecule?
Its T/C is 104 % of control.

What about the T/C (dose: 20.0 mg/kg/injection, schedule: Q01DX009 (ip), vehicle: saline) of the same molecule?
The T/C was 101 % of control.

How did the T/C [2] turn out when `CCCCNC(=S)NCCCC` was run?
Its T/C is 92 % of control.

And the T/C [6]?
Its T/C is 98 % of control.

And the T/C [4]?
The T/C was 98 % of control.

What about the T/C [7] of the same molecule?
The T/C was 104 % of control.

Which results are given for `COc1ccc(Nc2ccnc3cc(Cl)ccc23)cc1CN(CCCl)CCCl`?
T/C (dose: 0.78 mg/kg/injection, schedule: Q01DX009 (ip), vehicle: saline): 115 % of control; T/C (dose: 1.1 mg/kg/injection, schedule: Q01DX Z (ip), vehicle: methylcellulose (MC)): 110 % of control; T/C (dose: 1.25 mg/kg/injection, schedule: Q01DX009 (ip), vehicle: Klucel (hydroxypropylcellulose) (HPC)): 110 % of control; T/C (dose: 1.56 mg/kg/injection, schedule: Q01DX009 (ip), vehicle: saline): 109 % of control; T/C (dose: 1.56 mg/kg/injection, schedule: Q04DX003 (ip), vehicle: saline): 108 % of control; T/C (dose: 1.6 mg/kg/injection, schedule: Q01DX Z (ip), vehicle: methylcellulose (MC)): 106 % of control and 118 % of control; T/C (dose: 2.4 mg/kg/injection, schedule: Q01DX Z (ip), vehicle: methylcellulose (MC)): 117 % of control and 124 % of control; T/C (dose: 2.5 mg/kg/injection, schedule: Q01DX001 (ip), vehicle: Klucel (hydroxypropylcellulose) (HPC)): 108 % of control; T/C (dose: 2.5 mg/kg/injection, schedule: Q01DX009 (ip), vehicle: Klucel (hydroxypropylcellulose) (HPC)): 112 % of control; T/C (dose: 2.5 mg/kg/injection, schedule: Q04DX003 (ip), vehicle: Klucel (hydroxypropylcellulose) (HPC)): 105 % of control; T/C (dose: 3.13 mg/kg/injection, schedule: Q01DX009 (ip), vehicle: saline): 86 % of control; T/C (dose: 3.13 mg/kg/injection, schedule: Q04DX003 (ip), vehicle: saline): 106 % of control; T/C (dose: 3.6 mg/kg/injection, schedule: Q01DX Z (ip), vehicle: methylcellulose (MC)): 110 % of control and 112 % of control; T/C (dose: 5.0 mg/kg/injection, schedule: Q01DX001 (ip), vehicle: Klucel (hydroxypropylcellulose) (HPC)): 107 % of control; T/C (dose: 5.0 mg/kg/injection, schedule: Q04DX003 (ip), vehicle: Klucel (hydroxypropylcellulose) (HPC)): 106 % of control; T/C (dose: 10.0 mg/kg/injection, schedule: Q01DX001 (ip), vehicle: Klucel (hydroxypropylcellulose) (HPC)): 103 % of control; T/C (dose: 10.0 mg/kg/injection, schedule: Q04DX003 (ip), vehicle: Klucel (hydroxypropylcellulose) (HPC)): 105 % of control; T/C (dose: 50.0 mg/kg/injection, schedule: Q01DX001 (ip), vehicle: carboxymethylcellulose (CMC)): 106 % of control
